Consider 21 molecules from paper PMC8151276, “An Integrated Approach toward NanoBRET Tracers for Analysis of GPCR Ligand Engagement” (Molecules, 2021).

The target of the test is T1, ACKR3 (Homo sapiens, UniProt P25106).
T1 construct: purchased Promega (in-house HiBiT-GPCR construct library, NanoBRET)
Briefly: NanoBRET screen HiBiT-ACKR3 in HEK293. It is filed as binding. How it is done:
Each tracer candidate was screened across the entire library of HiBiT-GPCR constructs using NanoBRET as the detection modality. As depicted in Figure 4A, the specificity of interactions was evaluated through decrease in BRET due to competitive displacement of a bound tracer by excess parental compound. Each tracer was analyzed for binding to each HiBiT-GPCR fusion in the absence and in the presence of competing parental compound. Briefly, HEK293 cells were transfected with HiBiT-GPCR constructs diluted into promoterless DNA to reduce expression and maximize translocation to the cell surface. Each tracer candidate was then screened at concentrations of 1 μM and 0.1 μM across cells expressing these fusions. Cells were treated for 1.5 h with tracer either alone or in the presence of 20 μM competing parental compound (i.e., control). BRET was measured upon addition of purified LgBiT and subsequent complementation with HiBiT genetically fused to a GPCR. The specificity of interactions was assessed through a decrease in BRET signal due to competitive displacement of the bound tracer. To further gauge the robustness of these interactions, the fold response over the control (i.e., BRETtracer/BRETcontrol) was calculated. We chose a 1.5-fold response, which translates to ≥7-fold signal over noise as the minimal threshold required to score an interaction as positive. […]. Below we highlight the screening results obtained for our exemplary fluorescent tracers based on Clozapine, Amitriptyline and AZD1283.
HiBiT-GPCR DNA constructs were diluted in 10 mM Tris pH 8 to a final concentration of 0.01 μg/μL, arrayed in 96-well plates and stored at −20 °C. For transfection, HEK293 cells were suspended in Opti-MEM (without phenol red) supplemented with 2% fetal bovine serum (Seradigm) and 100 units/mL penicillin–streptomycin (Gibco) at a final concentration of 220,000 cells/mL and dispensed into white 96-well plates at 90 μL/well. Subsequent transfections and screens were carried using an Agilent Bravo Automated Liquid Handling Platform. First, the 96-well HiBiT DNA arrays were diluted 25-fold in Opti-MEM (without serum or phenol red) to a final concentration of 0.0004 μg/μL and 20 μL of the diluted DNAs were transferred into new 96-well plates. Next, promoterless carrier DNA (1 μg/μL) was diluted 25-fold (0.04 μg/μL) and then dispensed into the diluted arrays at 20 μL/well. Following brief mixing, Viafect transfection reagent (Promega) diluted 16-fold into Opti-MEM was dispensed into the plates at 40 μL/well. After mixing by pipetting, plates were incubated for 10 min on the pipetting station deck. The DNA-transfection reagent complexes were then added to plates containing cells. To facilitate the screen, 10 μL of DNA-transfection reagent complexes were added in duplicates to the top 4 and bottom 4 rows, resulting in two identical 48-well arrays per plate. Plates with transfected cells were incubated for 18–20 h at 37 °C/5% CO2. A screen of each tracer across the entire library using two different concentrations requires duplicate plates of transfected cells. Depending on the number of tracers being screened, transfections can be scaled up using the same ratios. The next day, for each tracer, four 20× screening solutions in tracer dilution buffer (Promega) were prepared: two duplicates at final concentration of 20 μM and two duplicates at a final concentration of 2 μM. A competing unmodified compound was added to one of each duplicate at a final concentration of 400 μM. The four resulting solutions were diluted 4-fold in Opti-MEM without serum or phenol red to generate 5× solutions (5 µM and 0.5 µM tracer +/− 100 μM competing compound). To screen the library, a BioTek MultiFlo FX liquid dispenser was used to dispense 22.5 µL of tracer solution to the top 4 rows and 22.5 µL tracer + competing compound solution to the 4 bottom rows. Plates were briefly mixed on an orbital shaker and incubated for 1.5 h at room temperature. […]

T1 sequence (P25106 whole entry): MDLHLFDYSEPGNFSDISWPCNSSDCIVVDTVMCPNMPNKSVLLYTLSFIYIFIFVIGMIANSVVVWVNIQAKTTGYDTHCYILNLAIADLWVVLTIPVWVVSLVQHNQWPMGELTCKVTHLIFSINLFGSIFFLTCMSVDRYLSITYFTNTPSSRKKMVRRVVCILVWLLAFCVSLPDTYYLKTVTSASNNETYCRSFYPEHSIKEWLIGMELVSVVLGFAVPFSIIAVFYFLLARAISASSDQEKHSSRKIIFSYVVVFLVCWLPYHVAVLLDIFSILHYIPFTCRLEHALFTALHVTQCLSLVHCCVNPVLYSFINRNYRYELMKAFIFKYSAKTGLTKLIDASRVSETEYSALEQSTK

As to `O=C(CCOCCOCCOCCOCCNC(=O)CCc1ccc2n1[B-](F)(F)[N+]1=C(c3ccc[nH]3)C=CC1=C2)NCCCN1CCN(C2=Nc3ccccc3Oc3ccc(Cl)cc32)CC1` [Loxapine-a-2-NB590], the “NanoBRET Fold Response” value is 0.30 (ACKR3, tracer 0.1μM) and 1.02 (ACKR3, tracer 1μM).

In the case of `CCCn1c(=O)c2[nH]c(-c3ccc(OCC(=O)NCCNC(=O)CCOCCNC(=O)c4ccc(CNC(=O)CCc5ccc6n5[B-](F)(F)[N+]5=C(c7ccc[nH]7)C=CC5=C6)cc4)cc3)nc2n(CCC)c1=O` [XAC-3-NB590], the “NanoBRET Fold Response” value came to 1.02 (ACKR3, tracer 0.1μM) and 1.49 (ACKR3, tracer 1μM).

For the molecule `CN(C)CCC=C1c2ccccc2CCc2ccc(C(=O)NCCNC(=O)CCOCCOCCOCCOCCNC(=O)CCc3ccc4n3[B-](F)(F)[N+]3=C(c5ccc[nH]5)C=CC3=C4)cc21` [Amitriptyline-a-2-NB590], the “NanoBRET Fold Response” value by setting is: (tracer at 0.1μM) 1.15; (tracer at 1μM) 0.99.

Consider `COc1ccccc1N1CCN(CCCCN2C(=O)c3ccc(CNC(=O)CCOCCOCCOCCOCCNC(=O)CCc4ccc5n4[B-](F)(F)[N+]4=C(c6ccc[nH]6)C=CC4=C5)cc3C2=O)CC1` [NAN-190-2-NB590], for which the “NanoBRET Fold Response” value (ACKR3, tracer 0.1μM) amounted to 1.09.

As for `O=C(CCc1ccc2n1[B-](F)(F)[N+]1=C(c3ccc[nH]3)C=CC1=C2)NCc1ccc(C(=O)NCCOCCOCCNCC(O)COc2cccc3ccccc23)cc1` (stereo not drawn) [Propranolol-3-NB590], the “NanoBRET Fold Response” value is, setting by setting: (ACKR3, 0.1μM) 1.04; (ACKR3, 1μM) 1.08.

As to `COc1ccccc1N1CCN(CCCCN2C(=O)c3ccc(CNC(=O)CCOCCNC(=O)c4ccc(CNC(=O)CCc5ccc6n5[B-](F)(F)[N+]5=C(c7ccc[nH]7)C=CC5=C6)cc4)cc3C2=O)CC1` [NAN-190-3-NB590], the “NanoBRET Fold Response” value runs as follows: (ACKR3, tracer 0.1μM) 0.77; (ACKR3, tracer 1μM) 1.10.

Regarding `O=C(CCc1ccc2n1[B-](F)(F)[N+]1=C(c3ccc[nH]3)C=CC1=C2)NCc1ccc(C(=O)NCCOCCC(=O)N[C@@H]2CC[C@@]3(O)[C@H]4Cc5ccc(O)c6c5[C@@]3(CCN4CC3CC3)[C@H]2O6)cc1` [Naltrexone-3-NB590], the “NanoBRET Fold Response” value is 1.11 (ACKR3, tracer 0.1μM) and 1.07 (ACKR3, tracer 1μM).

With `CCOC(=O)c1cc(C#N)c(N2CCC(C(=O)NS(=O)(=O)Cc3ccccc3/C=C/C(=O)NCCNC(=O)CCc3ccc4n3[B-](F)(F)[N+]3=C(c5ccc[nH]5)C=CC3=C4)CC2)nc1C` [AZD1283-1-NB590], the “NanoBRET Fold Response” value came out at 1.06 (ACKR3, 0.1μM) and 1.19 (ACKR3, 1μM).

`COc1ccc2[nH]c(-c3ccc(CNC(=O)CCOCCOCCOCCOCCNC(=O)CCc4ccc5n4[B-](F)(F)[N+]4=C(c6ccc[nH]6)C=CC4=C5)cc3)c(CCNC(C)=O)c2n1` [AzomelatoninICO9-2-NB590]: the “NanoBRET Fold Response” value by setting is: (0.1μM tracer) 1.40; (1μM tracer) 0.83.

As for `CC(C)N(CC[C@H](c1ccccc1)c1cc(CCNC(=O)CCOCCOCCOCCOCCNC(=O)CCc2ccc3n2[B-](F)(F)[N+]2=C(c4ccc[nH]4)C=CC2=C3)ccc1O)C(C)C` [Tolterodine-2-NB590], the “NanoBRET Fold Response” value (ACKR3, tracer 0.1μM) is 0.96 and the “NanoBRET Fold Response” value (ACKR3, tracer 1μM) turned out to be 1.00.

With `CN1CCN(C2=Nc3cc(Cl)ccc3N(CC(=O)NCCOCCOCCOCCOCCNC(=O)CCc3ccc4n3[B-](F)(F)[N+]3=C(c5ccc[nH]5)C=CC3=C4)c3ccccc32)CC1` [Clozapine-c-2-NB590], the “NanoBRET Fold Response” value (ACKR3, 1μM tracer) was 0.92.

With `N#CN=C(NCCCOc1cccc(CN2CCCCC2)c1)NCCNC(=O)CCOCCOCCOCCOCCNC(=O)CCc1ccc2n1[B-](F)(F)[N+]1=C(c3ccc[nH]3)C=CC1=C2` [Aminopotentidine-2-NB590], the “NanoBRET Fold Response” value is given as 0.99 (ACKR3, tracer 0.1μM) and 1.08 (ACKR3, tracer 1μM).

`COc1ccc2c(n1)c(CCNC(C)=O)cn2CCNC(=O)CCc1ccc2n1[B-](F)(F)[N+]1=C(c3ccc[nH]3)C=CC1=C2` [Azamelatonin-1-NB590]: the “NanoBRET Fold Response” value is 0.84 (0.1μM tracer) and 0.95 (1μM tracer).

In the case of `CN(CCC=C1c2ccccc2CCc2ccccc21)C(=O)CCOCCOCCOCCOCCNC(=O)CCc1ccc2n1[B-](F)(F)[N+]1=C(c3ccc[nH]3)C=CC1=C2` [Amitriptyline-e-2-NB590], the “NanoBRET Fold Response” value (tracer at 1μM) turned out to be 0.94.

Regarding `CC(C)N(CC[C@H](c1ccccc1)c1cc(CCNC(=O)c2ccc(CNC(=O)CCc3ccc4n3[B-](F)(F)[N+]3=C(c5ccc[nH]5)C=CC3=C4)cc2)ccc1O)C(C)C` [Tolterodine-BZ-NB590], the “NanoBRET Fold Response” value runs as follows: (ACKR3, tracer 0.1μM) 0.88; (ACKR3, tracer 1μM) 0.96.

`O=C(CCc1ccc2n1[B-](F)(F)[N+]1=C(c3ccc[nH]3)C=CC1=C2)NCCOCCOCCNC(=O)OCCOCCN1CCN(C2=Nc3ccccc3Sc3ccccc32)CC1` [Quetiapine-a-2-NB590]: the “NanoBRET Fold Response” value (ACKR3, tracer 0.1μM) was 0.96 and the “NanoBRET Fold Response” value (ACKR3, tracer 1μM) amounted to 0.96.

For `Cc1cc2c(s1)Nc1ccccc1N=C2N1CCN(CCCNC(=O)CCOCCOCCOCCOCCNC(=O)CCc2ccc3n2[B-](F)(F)[N+]2=C(c4ccc[nH]4)C=CC2=C3)CC1` [Olanzapine-a-2-NB590], the “NanoBRET Fold Response” value is, setting by setting: (ACKR3, tracer 0.1μM) 0.94; (ACKR3, tracer 1μM) 0.83.

For `CN(C)CCC=C1c2ccccc2CCc2ccc(C(=O)NCCNC(=O)CCOCCOCCOCCOCCNC(=O)CCc3ccc4n3[B-](F)(F)[N+]3=C(c5ccc[nH]5)C=CC3=C4)cc21` [Amitriptyline-b-2-NB590], the “NanoBRET Fold Response” value (tracer at 0.1μM, listed as amitriptyline-b-2-NB590) is recorded as 1.17 and the “NanoBRET Fold Response” value (tracer at 1μM, listed as amitriptyline-b-2-NB590) was 1.07.

In the case of `O=C(CCOCCOCCOCCOCCNC(=O)CCc1ccc2n1[B-](F)(F)[N+]1=C(c3ccc[nH]3)C=CC1=C2)NCCCN1CCN(C2=Nc3cc(Cl)ccc3Nc3ccccc32)CC1` [Clozapine-a-2-NB590], the “NanoBRET Fold Response” value runs as follows: (ACKR3, 0.1μM tracer) 1.05; (ACKR3, 1μM tracer) 1.06.

With `CN1CCN(C2=Nc3cc(Cl)ccc3Nc3ccc(CNC(=O)CCOCCOCCOCCOCCNC(=O)CCc4ccc5n4[B-](F)(F)[N+]4=C(c6ccc[nH]6)C=CC4=C5)cc32)CC1` [Clozapine-b-2-NB590], the “NanoBRET Fold Response” value by setting is: (ACKR3, 0.1μM tracer) 0.95; (ACKR3, 1μM tracer) 1.05.

In the case of `Cc1nc2n(c(=O)c1CCN1CCC(c3noc4cc(F)ccc34)CC1)CCCC2OC(=O)NCCOCCOCCOCCOCCNC(=O)CCc1ccc2n1[B-](F)(F)[N+]1=C(c3ccc[nH]3)C=CC1=C2` (stereo not drawn) [Risperidone-2-NB590], the “NanoBRET Fold Response” value was 1.07 (ACKR3, tracer 0.1μM) and 1.36 (ACKR3, tracer 1μM).
